The values below come from US8563472B2 (priority 2010, dated 2013).

Test system in the first series: not given
Assay: not given
Details: not given
As usually defined, the melting point is the temperature of the solid-liquid transition. For `C/C(=N\NC(=O)c1ccsc1)c1cc(Cl)cc(Cl)c1O` [Compound 47], the melting point lay within 230 to 232 °C.

`O=C(N/N=C/c1ccccc1O)c1cc2ccccc2s1` [Compound 20] displayed a melting point of 220 to 221 °C.

In turn, `C/C(=N\NC(=O)c1cc(C)nc2ccc(Br)cc12)c1ccccc1O` [Compound 2] showed a melting point of 251 to 254 °C.

`C/C(=N\NC(=O)c1cnn(-c2ccc(Cl)cc2)c1C(F)(F)F)c1ccccc1O` [Compound 35] showed a melting point of 201 to 202 °C.

Consider `O=C(N/N=C/c1cc(Br)cc(Br)c1O)c1cnn(-c2ccc(Cl)cc2)c1C(F)(F)F` [Compound 29], for which the melting point lay in the range of 237 to 238 °C.

Turning to `Cc1occc1C(=O)N/N=C/c1cc(Br)cc(Br)c1O` [Compound 33], the melting point fell in the range of 270 to 272 °C.

For the next series, the system named is Phytophthora infestans.
Assay: not given
The class given is in vivo. The note with it: hydrazone 50 ppm with 50 μM CuCl2.2H2O, applied 24 h before inoculation, tomato plants, assessed 7 d after inoculation.
`Cc1ccc(C(=O)N/N=C/c2cc(Br)cc(Cl)c2O)cn1` [Compound 8] came in with a TLB % control of 0%.

In turn, `O=C(N/N=C/c1ccccc1O)c1sc2ccccc2c1Cl` [Compound 19] came in with a TLB % control of 44%.

With `C=CCc1cccc(/C=N/NC(=O)c2ccc(Br)o2)c1O` [Compound 11], the TLB % control was determined as 31%.

`Cc1occc1C(=O)N/N=C/c1cc(Cl)cc(Cl)c1O` [Compound 10] returned a TLB % control of 67%.

For the molecule `C/C(=N\NC(=O)c1ccoc1C)c1ccccc1O` [Compound 9], the TLB % control worked out at 60%.

Molecule `C/C(=N\NC(=O)c1ccsc1)c1cc(Cl)cc(Cl)c1O` [Compound 47] had a TLB % control of 81%.

As to `O=C(N/N=C/c1ccccc1O)c1cc2ccccc2s1` [Compound 20], the TLB % control was found to be 18%.

As for `C/C(=N\NC(=O)c1cc(C)nc2ccc(Br)cc12)c1ccccc1O` [Compound 2], the TLB % control was 36%.

`C/C(=N\NC(=O)c1cnn(-c2ccc(Cl)cc2)c1C(F)(F)F)c1ccccc1O` [Compound 35] had a TLB % control of 59%.

Turning to `O=C(N/N=C/c1cc(Br)cc(Br)c1O)c1cnn(-c2ccc(Cl)cc2)c1C(F)(F)F` [Compound 29], the TLB % control came to 47%.

The molecule `Cc1occc1C(=O)N/N=C/c1cc(Br)cc(Br)c1O` [Compound 33] had a TLB % control of 66%.

`O=C(N/N=C/c1cc(Cl)ccc1O)c1cccs1` [Compound 5] registered a TLB % control of 54%.

`O=C(N/N=C/c1cc(Cl)cc(Cl)c1O)c1ccco1` [Compound 14] displayed a TLB % control of 52%.

In the case of `Cc1occc1C(=O)N/N=C/c1cc(Br)ccc1O` [Compound 6], the TLB % control was found to be 75%.

Consider `O=C(N/N=C/c1ccccc1O)c1cccs1` [Compound 7], for which the TLB % control is listed as 38%.

A further series has as its system Leptosphaeria nodorum (LEPTNO). Nature of the series: In vitro fungitoxicity assay against Leptosphaeria nodorum in copper-minus / copper-plus liquid medium. It counts as cell-based. The conditions noted are these: CuCl2 10 μM, no test compound, copper-plus vs copper-minus medium across experiments. The procedure: In vitro fungitoxicity assays against Leptosphaeria nodorum (LEPTNO) were conducted using the liquid growth medium described by Coursen and Sisler (American Journal of Botany 1960, 47, 541-549) except that copper micronutrient, normally included as CuSO4, was omitted. The medium, termed “copper-minus”, was prepared by dissolving 10 g glucose, 1.5 g K2HPO4, 2 g KH2PO4 and 1 g (NH4)2SO4 in 1 liter of deionized water and treating the solution with 0.5 g Chelex 100 resin (Bio-Rad Analytical grade, 50-100 mesh, sodium form, cat#142-2822) by stirring at room temperature for 1 h. MgSO4.7H2O (0.5 g) was added, and stirring was continued for a further hour. Trace elements (minus CuSO4), and vitamins described by Coursen and Sisler were added from concentrated stock solutions and the entire medium was sterilized by filtration. Medium containing copper was prepared by adding CuCl2.2H2O to the copper-minus medium at 20 μM. […] Copper-minus medium (100 μL) was added to one of the wells and copper-plus medium to the second well. Control wells, included for each medium, received 1 μL DMSO and 100 μL of medium.
LEPTNO was grown on potato dextrose agar in 9 cm diameter petri dishes for 7 days (d). Sterile deionized water (20 mL) was added to a culture plate and spores suspended by scraping the surface gently with a sterile plastic loop. The resulting suspension was filtered through a double layer of sterile cheesecloth. […] The spores were resuspended in copper-minus medium, and the suspension adjusted to 2×10^5 spores per mL. Microtiter plates were inoculated with 100 μL of this spore suspension and the plates incubated at 25° C. for 72 h before assessing fungal growth by measuring light scattering in a NepheloStar plate reader. Growth inhibition was determined by comparing growth in the presence of test compound with growth in control wells lacking test compound.
For the molecule `O.O.[Cl][Cu][Cl]` [CuCl2, CuCl2.2H2O, reference compound], the “LEPTNO % inhibition attributed to copper chloride alone” value was determined as 9.3 ± 1.6%.

The series is the same for the next values; noted with them: Parastagonospora nodorum; test compound 0.05 μg/mL, copper-minus medium, 25° C., 72 h, growth by light scattering; read-out: LEPTNO % Inhn. Minus Copper Observed.
As to `Cc1ccc(C(=O)N/N=C/c2cc(Br)cc(Cl)c2O)cn1` [Compound 8], the inhibition of growth at 0.05 µg/mL was 0%.

Consider `O=C(N/N=C/c1ccccc1O)c1sc2ccccc2c1Cl` [Compound 19], for which the inhibition of growth at 0.05 µg/mL was found to be 0%.

Regarding `C=CCc1cccc(/C=N/NC(=O)c2ccc(Br)o2)c1O` [Compound 11], the inhibition of growth at 0.05 µg/mL is 12.9%.

In the case of `Cc1occc1C(=O)N/N=C/c1cc(Cl)cc(Cl)c1O` [Compound 10], the inhibition of growth at 0.05 µg/mL came to 8.7%.

On to `C/C(=N\NC(=O)c1ccoc1C)c1ccccc1O` [Compound 9], for which the inhibition of growth at 0.05 µg/mL came to 3.9%.

On to `C/C(=N\NC(=O)c1ccsc1)c1cc(Cl)cc(Cl)c1O` [Compound 47], for which the inhibition of growth at 0.05 µg/mL is 0%.

Take `O=C(N/N=C/c1ccccc1O)c1cc2ccccc2s1` [Compound 20]: the inhibition of growth at 0.05 µg/mL was 4.2%.

For `C/C(=N\NC(=O)c1cc(C)nc2ccc(Br)cc12)c1ccccc1O` [Compound 2], the inhibition of growth at 0.05 µg/mL amounted to 0%.

Take `C/C(=N\NC(=O)c1cnn(-c2ccc(Cl)cc2)c1C(F)(F)F)c1ccccc1O` [Compound 35]: the inhibition of growth at 0.05 µg/mL was determined as 4.3%.

As for `O=C(N/N=C/c1cc(Br)cc(Br)c1O)c1cnn(-c2ccc(Cl)cc2)c1C(F)(F)F` [Compound 29], the inhibition of growth at 0.05 µg/mL came to 7.8%.

Take `Cc1occc1C(=O)N/N=C/c1cc(Br)cc(Br)c1O` [Compound 33]: the inhibition of growth at 0.05 µg/mL was 9.1%.

For the molecule `O=C(N/N=C/c1cc(Cl)ccc1O)c1cccs1` [Compound 5], the inhibition of growth at 0.05 µg/mL came to 0%.

Regarding `O=C(N/N=C/c1cc(Cl)cc(Cl)c1O)c1ccco1` [Compound 14], the inhibition of growth at 0.05 µg/mL was found to be 0%.

For the molecule `Cc1occc1C(=O)N/N=C/c1cc(Br)ccc1O` [Compound 6], the inhibition of growth at 0.05 µg/mL came out at 2.2%.

Take `O=C(N/N=C/c1ccccc1O)c1cccs1` [Compound 7]: the inhibition of growth at 0.05 µg/mL stood at 0%.

The series is the same for the next values; noted with them: test compound 0.05 μg/mL, copper-plus medium (CuCl2.2H2O), 25° C., 72 h.
For `Cc1ccc(C(=O)N/N=C/c2cc(Br)cc(Cl)c2O)cn1` [Compound 8], the “LEPTNO % Inhn. Plus Copper Observed” value amounted to 60.9%.

On to `O=C(N/N=C/c1ccccc1O)c1sc2ccccc2c1Cl` [Compound 19], for which the “LEPTNO % Inhn. Plus Copper Observed” value worked out at 92.1%.

Regarding `C=CCc1cccc(/C=N/NC(=O)c2ccc(Br)o2)c1O` [Compound 11], the “LEPTNO % Inhn. Plus Copper Observed” value is on record as 95.1%.

For `Cc1occc1C(=O)N/N=C/c1cc(Cl)cc(Cl)c1O` [Compound 10], the “LEPTNO % Inhn. Plus Copper Observed” value worked out at 98.1%.

Take `C/C(=N\NC(=O)c1ccoc1C)c1ccccc1O` [Compound 9]: the “LEPTNO % Inhn. Plus Copper Observed” value came to 97%.

In the case of `C/C(=N\NC(=O)c1ccsc1)c1cc(Cl)cc(Cl)c1O` [Compound 47], the “LEPTNO % Inhn. Plus Copper Observed” value is on record as 98.1%.

`O=C(N/N=C/c1ccccc1O)c1cc2ccccc2s1` [Compound 20]: the “LEPTNO % Inhn. Plus Copper Observed” value came out at 95.4%.

As to `C/C(=N\NC(=O)c1cc(C)nc2ccc(Br)cc12)c1ccccc1O` [Compound 2], the “LEPTNO % Inhn. Plus Copper Observed” value worked out at 83.4%.

On to `C/C(=N\NC(=O)c1cnn(-c2ccc(Cl)cc2)c1C(F)(F)F)c1ccccc1O` [Compound 35], for which the “LEPTNO % Inhn. Plus Copper Observed” value is listed as 94.8%.

On to `O=C(N/N=C/c1cc(Br)cc(Br)c1O)c1cnn(-c2ccc(Cl)cc2)c1C(F)(F)F` [Compound 29], for which the “LEPTNO % Inhn. Plus Copper Observed” value came to 57.6%.

In the case of `Cc1occc1C(=O)N/N=C/c1cc(Br)cc(Br)c1O` [Compound 33], the “LEPTNO % Inhn. Plus Copper Observed” value turned out to be 97.8%.

Consider `O=C(N/N=C/c1cc(Cl)ccc1O)c1cccs1` [Compound 5], for which the “LEPTNO % Inhn. Plus Copper Observed” value is on record as 95.8%.

`O=C(N/N=C/c1cc(Cl)cc(Cl)c1O)c1ccco1` [Compound 14]: the “LEPTNO % Inhn. Plus Copper Observed” value came out at 56.2%.

In the case of `Cc1occc1C(=O)N/N=C/c1cc(Br)ccc1O` [Compound 6], the “LEPTNO % Inhn. Plus Copper Observed” value came out at 96.7%.

For the molecule `O=C(N/N=C/c1ccccc1O)c1cccs1` [Compound 7], the “LEPTNO % Inhn. Plus Copper Observed” value came out at 87.3%.
